Data set [1] deals with MIA PaCa-2. The experiment in a line: Cytotoxicity against human MIA PaCa-2 cells assessed as reduction in cell viability incubated for 48 hrs by MTT assay. As to conditions: MIA PaCa-2, 48 h. It is filed as functional, cell-based.
Data set [2] relates to HeLa. The data set can be described thus: Cytotoxicity against human HeLa cells assessed as reduction in cell viability incubated for 24 hrs by MTT assay. The format is functional, cell-based.
Data set [3] is described as follows: Cytotoxicity against human MRC5 cells assessed as reduction in cell viability incubated for 24 hrs by MTT assay. The format is toxicity, cell-based.
The nature of data set [4]: Cytotoxicity against human MRC5 cells assessed as reduction in cell viability incubated for 72 hrs by MTT assay. The format is toxicity, cell-based.
Data set [5] concerns Caco-2. The experiment in a line: Cytotoxicity against human Caco-2 cells assessed as reduction in cell viability incubated for 24 hrs by MTT assay. It is filed as functional, cell-based. As to conditions: Caco-2, 24 h.
In data set [6] the test system is OVCAR-3. The experiment in a line: Cytotoxicity against human OVCAR-3 cells assessed as reduction in cell viability incubated for 72 hrs by MTT assay. The format is functional, cell-based. As to conditions: OVCAR-3, 72 h.
Data set [7] relates to MIA PaCa-2. The experiment in a line: Cytotoxicity against human MIA PaCa-2 cells assessed as reduction in cell viability incubated for 24 hrs by MTT assay. The format is functional, cell-based. As to conditions: MIA PaCa-2, 24 h.
Data set [8] concerns Caco-2. The experiment in a line: Cytotoxicity against human Caco-2 cells assessed as reduction in cell viability incubated for 48 hrs by MTT assay. The format is functional, cell-based. To be noted: Caco-2, 48 h.
Data set [9] has as its system MCF7. The data set can be described thus: Cytotoxicity against human MCF7 cells assessed as reduction in cell viability incubated for 24 hrs by MTT assay. It is filed as functional, cell-based. As to conditions: MCF7, 24 h.
Data set [10] concerns MIA PaCa-2. The data set can be described thus: Cytotoxicity against human MIA PaCa-2 cells assessed as reduction in cell viability incubated for 72 hrs by MTT assay. It is filed as functional, cell-based. To be noted: MIA PaCa-2, 72 h.
The test system of data set [11] is MCF7. The data set can be described thus: Cytotoxicity against human MCF7 cells assessed as reduction in cell viability incubated for 72 hrs by MTT assay. It is filed as functional, cell-based. As to conditions: MCF7, 72 h.
In data set [12] the test system is HeLa. The data set can be described thus: Cytotoxicity against human HeLa cells assessed as reduction in cell viability incubated for 72 hrs by MTT assay. The format is functional, cell-based.
Data set [13] can be described thus: Cytotoxicity against human MRC5 cells assessed as reduction in cell viability incubated for 48 hrs by MTT assay. The format is toxicity, cell-based.
Data set [14] has as its system Caco-2. The data set can be described thus: Cytotoxicity against human Caco-2 cells assessed as reduction in cell viability incubated for 72 hrs by MTT assay. The format is functional, cell-based. To be noted: Caco-2, 72 h.
For data set [15], the system named is OVCAR-3. The data set can be described thus: Cytotoxicity against human OVCAR-3 cells assessed as reduction in cell viability incubated for 24 hrs by MTT assay. The format is functional, cell-based. To be noted: OVCAR-3, 24 h.
The subject of data set [16] is OVCAR-3. The data set can be described thus: Cytotoxicity against human OVCAR-3 cells assessed as reduction in cell viability incubated for 48 hrs by MTT assay. The format is functional, cell-based. To be noted: OVCAR-3, 48 h.
The test system of data set [17] is HeLa. The data set can be described thus: Cytotoxicity against human HeLa cells assessed as reduction in cell viability incubated for 48 hrs by MTT assay. It is filed as functional, cell-based.
Data set [18] has as its system MCF7. The data set can be described thus: Cytotoxicity against human MCF7 cells assessed as reduction in cell viability incubated for 48 hrs by MTT assay. The format is functional, cell-based. To be noted: MCF7, 48 h.
The test system of data set [19] is MIA PaCa-2. The data set can be described thus: Cytotoxicity against human MIA PaCa-2 cells assessed as reduction in cell viability at 100 uM incubated for 24 hrs by MTT assay relative to control. It is filed as functional.
Data set [20] concerns MIA PaCa-2. The data set can be described thus: Cytotoxicity against human MIA PaCa-2 cells assessed as reduction in cell viability at 100 uM incubated for 72 hrs by MTT assay relative to control. It is filed as functional.

IC50 and Activity data for seven molecules are collected here from ChEMBL document CHEMBL5625261, “Cytotoxic effects of kinetin riboside and its selected analogues on cancer cell lines” (Bioorg Med Chem Lett, 2024).

Take `OC[C@H]1O[C@@H](n2cnc3c(NCc4cccs4)ncnc32)[C@H](O)[C@@H]1O`: the half-inhibitory concentration (IC50) with MIA PaCa-2 [1] was 1.2 µM; with HeLa [2], over 100 µM; in the data set on Caco-2 [5], 16.9 µM; in the data set on OVCAR-3 [6], 1.5 µM; with MIA PaCa-2 [7], over 100 µM; in the data set with Caco-2 [8] it was 10.5 µM. For the same molecule, the half-maximal inhibitory concentration (IC50) is 20.8 µM in the data set with MCF7 [9]; 1.1 µM in the data set with MIA PaCa-2 [10]; 2.6 µM in the data set on MCF7 [11]; over 100 µM in the data set with HeLa [12]; 5.9 µM in the data set with Caco-2 [14]; over 100 µM in the data set with OVCAR-3 [15]. Moreover, the figures for the IC50 with OVCAR-3 [16], in the data set on HeLa [17] and in the data set with MCF7 [18] were 2.9 µM, over 100 µM and 3 µM, respectively. In addition, the half-inhibitory concentration (IC50) at 24 h in data set [3] was 12.7 µM. The IC50 at 72 h in [4] came to 1.8 µM. Moreover, the IC50 at 48 h in data set [13] amounted to 2.1 µM.
In the case of `Nc1nc(NCc2ccco2)nc2c1ncn2[C@@H]1O[C@H](CO)[C@@H](O)[C@H]1O`, the IC50 in the data set with MIA PaCa-2 [1], with HeLa [2], in the data set with Caco-2 [5], in the data set with OVCAR-3 [6], with MIA PaCa-2 [7] and with Caco-2 [8] was over 100 µM each time. In addition, the IC50 in the data set on MCF7 [9], in the data set on MIA PaCa-2 [10], in the data set with MCF7 [11], in the data set on HeLa [12], with Caco-2 [14] and in the data set on OVCAR-3 [15] was over 100 µM in each case. The IC50 with OVCAR-3 [16], in the data set with HeLa [17] and in the data set on MCF7 [18] was over 100 µM each time. Also, the 50% inhibitory concentration (IC50) at 24 h in [3] was over 100 µM. Moreover, the IC50 at 72 h in [4] was over 100 µM. The IC50 at 48 h in data set [13] is over 100 µM.
Take `OC[C@H]1O[C@@H](n2cnc3c(NCc4ccco4)ncnc32)[C@@H](O)[C@@H]1O`: the half-inhibitory concentration (IC50) in the data set with MIA PaCa-2 [1], with HeLa [2], with Caco-2 [5], in the data set on OVCAR-3 [6], in the data set on MIA PaCa-2 [7] and in the data set with Caco-2 [8] was over 100 µM in each case. For the same molecule, the IC50 with MCF7 [9], with MIA PaCa-2 [10], in the data set with MCF7 [11], in the data set on HeLa [12], in the data set with Caco-2 [14] and with OVCAR-3 [15] was over 100 µM in each case. The IC50 with OVCAR-3 [16], with HeLa [17] and in the data set on MCF7 [18] was over 100 µM each time. In addition, the 50% inhibitory concentration (IC50) at 24 h in data set [3] was over 100 µM. Besides, the IC50 at 72 h in data set [4] is over 100 µM. Further, the IC50 at 48 h in data set [13] is over 100 µM.
On to `OC[C@H]1O[C@@H](n2nnc3c(NCc4ccco4)ncnc32)[C@H](O)[C@@H]1O`, for which the half-maximal inhibitory concentration (IC50) is 2.8 µM with MIA PaCa-2 [1]; over 100 µM in the data set on HeLa [2]; 25 µM with Caco-2 [5]; 1.1 µM in the data set with OVCAR-3 [6]; over 100 µM in the data set on MIA PaCa-2 [7]; 18.7 µM in the data set on Caco-2 [8]. For the same molecule, the IC50 with MCF7 [9] is 27 µM; in the data set with MIA PaCa-2 [10] it was 1.1 µM; with MCF7 [11], 3.8 µM; in the data set on HeLa [12] it was 4.6 µM; with Caco-2 [14], 11.5 µM; in the data set on OVCAR-3 [15], over 100 µM. Also, the IC50 amounted to 76 µM in the data set with OVCAR-3 [16], 14.5 µM in the data set on HeLa [17] and 4.3 µM in the data set on MCF7 [18]. Also, the concentration for half-maximal inhibition (IC50) at 24 h in data set [3] was over 100 µM. In addition, in [4], the IC50 at 72 h came out at 4.6 µM. In addition, in [13], the IC50 at 48 h was 11.7 µM.
Turning to `OC[C@H]1O[C@@H](n2cnc3c(NCc4ccco4)ncnc32)C[C@@H]1O`, the IC50 in the data set with MIA PaCa-2 [1], in the data set with HeLa [2], in the data set with Caco-2 [5], with OVCAR-3 [6], with MIA PaCa-2 [7] and with Caco-2 [8] was over 100 µM throughout. For the same molecule, the IC50 in the data set on MCF7 [9], with MIA PaCa-2 [10], with MCF7 [11], with HeLa [12], in the data set with Caco-2 [14] and in the data set on OVCAR-3 [15] was over 100 µM each time. Also, the 50% inhibitory concentration (IC50) in the data set with OVCAR-3 [16], with HeLa [17] and with MCF7 [18] was over 100 µM throughout. Moreover, in [3], the IC50 at 24 h is over 100 µM. For the same molecule, in [4], the IC50 at 72 h is over 100 µM. The 50% inhibitory concentration (IC50) at 48 h in data set [13] is over 100 µM.
For the molecule `Nc1nc(NCc2ccco2)c2ncn([C@@H]3O[C@H](CO)[C@@H](O)[C@H]3O)c2n1`, the IC50 in the data set with MIA PaCa-2 [1], in the data set on HeLa [2], in the data set with Caco-2 [5], with OVCAR-3 [6], in the data set on MIA PaCa-2 [7] and in the data set on Caco-2 [8] was over 100 µM in each case. In addition, the IC50 in the data set on MCF7 [9], with MIA PaCa-2 [10], in the data set with MCF7 [11], with HeLa [12], in the data set with Caco-2 [14] and with OVCAR-3 [15] was over 100 µM each time. The 50% inhibitory concentration (IC50) with OVCAR-3 [16], in the data set with HeLa [17] and in the data set on MCF7 [18] was over 100 µM throughout. Moreover, the 50% inhibitory concentration (IC50) at 24 h in [3] was over 100 µM. The IC50 at 72 h in data set [4] was over 100 µM. The half-inhibitory concentration (IC50) at 48 h in [13] was over 100 µM.
As to `OC[C@H]1O[C@@H](n2cnc3c(NCc4ccoc4)ncnc32)[C@H](O)[C@@H]1O`, the half-maximal inhibitory concentration (IC50) is 1.4 µM in the data set on MIA PaCa-2 [1]; over 100 µM in the data set on HeLa [2]; 18.5 µM in the data set with Caco-2 [5]; 1.8 µM with OVCAR-3 [6]; over 100 µM in the data set on MIA PaCa-2 [7]; 13.1 µM in the data set on Caco-2 [8]. For the same molecule, the IC50 is 12 µM in the data set on MCF7 [9]; 1.1 µM in the data set on MIA PaCa-2 [10]; 2.1 µM in the data set with MCF7 [11]; over 100 µM in the data set on HeLa [12]; 6.5 µM with Caco-2 [14]; over 100 µM with OVCAR-3 [15]. Also, the IC50 in the data set with OVCAR-3 [16] was 3.3 µM; in the data set on HeLa [17], over 100 µM; with MCF7 [18], 2.2 µM. Also, the 50% inhibitory concentration (IC50) at 24 h in [3] stood at 16 µM. Further, the IC50 at 72 h in data set [4] worked out at 0.7 µM. Further, the IC50 at 48 h in data set [13] was 1 µM. For the same molecule, the Activity is listed as 40% in the data set on MIA PaCa-2 [19] and about 90% in the data set on MIA PaCa-2 [20].
